Tests used:
[1] = target: human CYP2C9 (Homo sapiens, UniProt P11712); experiment: Biological Test Example 9: CYP2C9 inhibition (Invitrogen kit, fluorogenic substrate OOMR); format: in vitro ADME
[2] = target: T1, human 11β-HSD1 (Homo sapiens, UniProt P28845); format: biochemical
T1 construct: expressed in transfected cells; host or cells: CHO cells (microsomal preparation)
T1 sequence (P28845 whole entry): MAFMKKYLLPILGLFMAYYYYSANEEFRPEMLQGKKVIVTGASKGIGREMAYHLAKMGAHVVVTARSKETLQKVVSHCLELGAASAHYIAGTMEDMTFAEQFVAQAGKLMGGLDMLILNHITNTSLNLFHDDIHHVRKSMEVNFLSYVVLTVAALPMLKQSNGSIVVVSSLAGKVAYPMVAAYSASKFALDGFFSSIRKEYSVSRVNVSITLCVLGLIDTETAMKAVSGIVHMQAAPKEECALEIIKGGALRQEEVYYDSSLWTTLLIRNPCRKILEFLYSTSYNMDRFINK

Chain of human CYP2C9 (P11712 whole entry): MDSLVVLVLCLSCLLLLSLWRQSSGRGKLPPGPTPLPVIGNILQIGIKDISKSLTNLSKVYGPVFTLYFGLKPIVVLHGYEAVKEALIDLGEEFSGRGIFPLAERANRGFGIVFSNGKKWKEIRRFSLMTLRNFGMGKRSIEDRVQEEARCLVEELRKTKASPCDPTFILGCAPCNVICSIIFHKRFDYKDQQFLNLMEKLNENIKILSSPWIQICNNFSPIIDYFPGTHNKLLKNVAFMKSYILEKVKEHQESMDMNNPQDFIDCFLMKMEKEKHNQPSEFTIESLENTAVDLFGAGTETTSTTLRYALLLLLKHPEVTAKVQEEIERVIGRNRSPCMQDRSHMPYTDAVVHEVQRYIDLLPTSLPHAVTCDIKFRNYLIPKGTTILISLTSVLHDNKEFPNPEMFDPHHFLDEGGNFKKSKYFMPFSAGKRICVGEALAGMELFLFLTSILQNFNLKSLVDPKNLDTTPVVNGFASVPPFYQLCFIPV

| Structure (SMILES) | IC50 [1] [µM] | Shift [2] |
| --- | --- | --- |
| C[C@@H](c1ccc(-c2ccn(C3CC3)c(=O)c2)cc1)N1CCC(CC2CC2)(CC(C)(C)O)OC1=O (single isomer, unassigned) [93 Isomer 1] | 28.5 | – |
| C[C@@H](c1ccc(-c2cccn(C)c2=O)cc1)N1CC[C@](CCCO)(c2ccc(F)cc2)OC1=O [Example 42, (R)-6-(4-fluorophenyl)-6-(3-hydroxypropyl)-3-((S)-1-(4-(1-methyl-2-oxo-1,2-dihydropyridin-3-yl)phenyl)ethyl)-1,3-oxazinan-2-one] | – | 7.97 |
| C[C@@H](c1ccc(-c2ccn(C)c(=O)c2)cc1)N1CC[C@](CC(C)(C)O)(c2ccccc2)OC1=O [Example 48, (S)-6-(2-hydroxy-2-methylpropyl)-3-((S)-1-(4-(1-methyl-2-oxo-1,2-dihydropyridin-4-yl)phenyl)ethyl)-6-phenyl-1,3-oxazinan-2-one] | > 30 | – |
| CCn1cc(-c2ccc([C@H](C)N3CC[C@](CC(C)(C)O)(c4ccccc4)OC3=O)cc2)ccc1=O [Example 53, (S)-3-((S)-1-(4-(1-ethyl-6-oxo-1,6-dihydropyridin-3-yl)phenyl)ethyl)-6-(2-hydroxy-2-methylpropyl)-6-phenyl-1,3-oxazinan-2-one] | > 30 | – |
